# Patent EP3597653A1, “CYCLIC INHIBITORS OF HEPATITIS B VIRUS” (IRBM S.P.A., priority 2018, dated 2020)
# pEC50: −log10 of the molar value.
# Test system: HBV
# Test: HBV inhibition assay in HepAD38 cells (extracellular HBV DNA by direct qPCR)
# Assay type: cell-based
# Conditions: Hepatitis B virus, 8-point dose-response curve, 96 hours, read-out: HBV inh EC50
# Text: HepAD38 cell line (Ladner et al., Antimicrob Agents Chemother, 1997, 41, 1715-20) was used for HBV inhibition assays. HepAD38 is a subclone, derived from Hepatoblastoma cell line HepG2 (ATCC® Number: HB-8065™), that expresses HBV genome under the control of a tetracycline-responsive promoter in a TET-OFF system: addition of tetracycline suppresses HBV replication, while its removal switches on the process allowing HBV viral particles release in the cell supernatant. HepAD38 cell line is maintained in DMEM/F12, supplemented with 10% of fetal bovine serum, 1% of glutamine, 1% of penicillin/streptomycin, 0.4 mg/ml G418 and 0,3 ug/ml tetracycline. For the HBV inhibition assay, doxycycline-free medium is used in order to allow virion production.
# HBV inhibition activity in vitro was performed in 96 multiwell plates. During the initial (primary) screening compounds were first tested in triplicates at concentrations of 0.1µM, 0.5µM amd 1µM. For selected compounds, an 8-point dose-response curve can be obtained using 1:2 serial dilutions (starting from 2.5 µM, 1.25µM or 0.4 µM, depending on the degree of inhibition observed during the primary screening). From the dose-response curves, half maximal effective concentration (EC50) can be calculated (see also below).
# In more detail, compounds - typically dissolved in DMSO stock solutions - are diluted to 2x the final desired concentration in 100 µl of the above medium (without doxycycline) and plated in three replicates in the 96-well plates.
# Simultaneously, HepAD38 cells - extensively pre-washed in tetracycline-free medium in order to induce HBV production - are suspended at 2*10^4 cells in 100 µl of tetracycline-free medium and added to each well of the plate, to yield a final assay volume of 200 µl DMSO - used for stock solutions and compounds dilutions - which is always present in the assays at a final concentration of 0.5%.
# Plates are then incubated 96 hours at 37°C and then subjected to cell viability assay in order to define compounds cytotoxicity and to extracellular HBV quantification in order to evaluate antiviral activity of compounds. Cytotoxicity is assessed by a commercial fluorescence assay that measures the metabolic activity of cells, directly related to cell viability (Cell Titer Blue, Promega). Anti-HBV activity was evaluated by quantification of extracellular HBV DNA with direct qPCR. In particular, supernatant was collected and centrifuged for cell debris clarification, viral DNA was extracted from virions by addition of lysis buffer (1 mM 1,4-dithiothreitol, 0.2% sodium dodecyl sulphate) and incubated at 95°C for 10 min. Samples were then diluted 1:40 and real time PCR amplification was performed with SYBR green assay (Power SYBR™ Green PCR Master Mix-Thermo Fisher Scientific) and specific HBV primer (HBV-DF:5'-[…]-3' (SEQ ID No. 1), HBV-DR:5'-[…]-3' (SEQ ID No. 2)).
# All HBV inhibition or antiviral activity data are typically reported in percent (%) relative to a non-treated reference sample. Excel and Graphpad Prism programs are typically used for data elaboration and EC50 calculation.
row,Compound,pEC50
1,"O=C(Nc1cc(F)c(F)c(F)c1)c1ccc2c(c1)S(=O)(=O)NC(C1CCNCC1)N2 (stereo not shown) [Example E32, 3-(piperidin-4-yl)-N-(3,4,5-trifluorophenyl)-3,4-dihydro-2H-benzo[e][1,2,4]thiadiazine-7-carboxamide 1,1-dioxide]",> 6.00
2,"O=C(Nc1cc(F)c(F)c(F)c1)c1ccc2c(c1)S(=O)(=O)NC(c1c(F)cccc1F)N2 (stereo not shown) [Example E35, 3-(2,6-difluorophenyl)-N-(3,4,5-trifluorophenyl)-3,4-dihydro-2H-benzo[e][1,2,4]thiadiazine-7-carboxamide 1,1-dioxide]",> 6.00
3,"Cn1cncc1C1Nc2ccc(C(=O)Nc3cc(F)c(F)c(F)c3)cc2S(=O)(=O)N1 (stereo not shown) [Example E37, 3-(1-methyl-1H-imidazol-5-yl)-N-(3,4,5-trifluorophenyl)-3,4-dihydro-2H-benzo[e][1,2,4]thiadiazine-7-carboxamide 1,1-dioxide]",> 6.00
4,"O=C(Nc1cc(F)c(F)c(F)c1)c1ccc2c(c1)S(=O)(=O)NC(c1nccs1)N2 (stereo not shown) [Example E49, 3-(thiazol-2-yl)-N-(3,4,5-trifluorophenyl)-3,4-dihydro-2H-benzo[e][1,2,4]thiadiazine-7-carboxamide 1,1-dioxide]",> 6.00

# Same assay, conditions: Hepatitis B virus, compound at 0.5 µM, 96 hours, relative to non-treated reference, read-out: Anti HBV Activity (conc µM)
row,Compound,inhibition at 0.5 µM [%]
1,"O=C(Nc1cc(F)c(F)c(F)c1)c1ccc2c(c1)S(=O)(=O)NC([C@@H](O)CO)N2 (stereo partly drawn) [Example E26, 3-((R)-1,2-dihydroxyethyl)-N-(3,4,5-trifluorophenyl)-3,4-dihydro-2H-benzo[e][1,2,4]thiadiazine-7-carboxamide 1,1-dioxide]",> 50
2,"CC1(C)Nc2ccc(C(=O)Nc3cc(F)c(F)c(F)c3)cc2S(=O)(=O)N1 [Example E27, 3,3-dimethyl-N-(3,4,5-trifluorophenyl)-3,4-dihydro-2H-benzo[e][1,2,4]thiadiazine-7-carboxamide 1,1-dioxide]",> 50
3,"O=C(Nc1cc(F)c(F)c(F)c1)c1ccc2c(c1)S(=O)(=O)NC(CO)N2 (stereo not shown) [Example E28, 3-(hydroxymethyl)-N-(3,4,5-trifluorophenyl)-3,4-dihydro-2H-benzo[e][1,2,4]thiadiazine-7-carboxamide 1,1-dioxide]",> 50
4,"CN1C(C2CCNCC2)Nc2ccc(C(=O)Nc3cc(F)c(F)c(F)c3)cc2S1(=O)=O (stereo not shown) [Example E33, 2-methyl-3-(piperidin-4-yl)-N-(3,4,5-trifluorophenyl)-3,4-dihydro-2H-benzo[e][1,2,4]thiadiazine-7-carboxamide 1,1-dioxide]",< 50

# Same assay, conditions: Hepatitis B virus, compound at 1 µM, 96 hours, relative to non-treated reference, read-out: Anti HBV Activity (conc µM)
row,Compound,inhibition at 1 µM [%]
1,"NCC1Nc2ccc(C(=O)Nc3cc(F)c(F)c(F)c3)cc2S(=O)(=O)N1 (stereo not shown) [Example E29, 3-(aminomethyl)-N-(3,4,5-trifluorophenyl)-3,4-dihydro-2H-benzo[e][1,2,4]thiadiazine-7-carboxamide 1,1-dioxide]",> 50
2,"CC(=O)NCC1Nc2ccc(C(=O)Nc3cc(F)c(F)c(F)c3)cc2S(=O)(=O)N1 (stereo not shown) [Example E30, 3-(acetamidomethyl)-N-(3,4,5-trifluorophenyl)-3,4-dihydro-2H-benzo[e][1,2,4]thiadiazine-7-carboxamide 1,1-dioxide]",> 50
3,"CC(C)(C)OC(=O)N1CCC(C2Nc3ccc(C(=O)Nc4cc(F)c(F)c(F)c4)cc3S(=O)(=O)N2)CC1 (stereo not shown) [Example E31, tert-butyl 4-(1,1-dioxido-7-((3,4,5-trifluorophenyl)carbamoyl)-3,4-dihydro-2H-benzo[e] [1,2,4]thiadiazin-3-yl)piperidine-1-carboxylate]",> 50
4,"O=C(Nc1cc(F)c(F)c(F)c1)c1cc2c(cc1Cl)NC1(CCC1)NS2(=O)=O [Example E34, 6-chloro-N-(3,4,5-trifluorophenyl)-2H,4H-spiro[benzo[e] [1,2,4]thiadiazine-3,1'-cyclobutane]-7-carboxamide 1,1-dioxide]",< 50
5,"O=C(Nc1cc(F)c(F)c(F)c1)c1cc2c(cc1Cl)NC(c1nccs1)NS2(=O)=O (stereo not shown) [Example E36, 6-chloro-3-(thiazol-2-yl)-N-(3,4,5-trifluorophenyl)-3,4-dihydro-2H-benzo[e][1,2,4]thiadiazine-7-carboxamide 1,1-dioxide]",> 50
6,"Cc1nc(C)c(C2Nc3ccc(C(=O)Nc4ccc(F)c(F)c4)cc3S(=O)(=O)N2)o1 (stereo not shown) [Example E38, N-(3,4-difluorophenyl)-3-(2,4-dimethyloxazol-5-yl)-3,4-dihydro-2H-benzo[e][1,2,4]thiadiazine-7-carboxamide 1,1-dioxide]",> 50
7,"CC1(c2ccncc2)Nc2ccc(C(=O)Nc3cc(F)c(F)c(F)c3)cc2S(=O)(=O)N1 (stereo not shown) [Example E39, 3-methyl-3-(pyridin-4-yl)-N-(3,4,5-trifluorophenyl)-3,4-dihydro-2H-benzo[e][1,2,4]thiadiazine-7-carboxamide 1,1-dioxide]",> 50
8,"O=C(Nc1cc(F)c(F)c(F)c1)c1ccc2c(c1)S(=O)(=O)NC(c1cncs1)N2 (stereo not shown) [Example E40, 3-(thiazol-5-yl)-N-(3,4,5-trifluorophenyl)-3,4-dihydro-2H-benzo[e][1,2,4]thiadiazine-7-carboxamide 1,1-dioxide]",> 50
9,"O=C(Nc1cc(F)c(F)c(F)c1)c1ccc2c(c1)S(=O)(=O)NC(c1cscn1)N2 (stereo not shown) [Example E41, 3-(thiazol-4-yl)-N-(3,4,5-trifluorophenyl)-3,4-dihydro-2H-benzo[e][1,2,4]thiadiazine-7-carboxamide 1,1-dioxide]",> 50
10,"O=C(Nc1cc(F)c(F)c(F)c1)c1ccc2c(c1)S(=O)(=O)NC(c1ccc(C(F)(F)F)nc1)N2 (stereo not shown) [Example E42, 3-(6-(trifluoromethyl)pyridin-3-yl)-N-(3,4,5-trifluorophenyl)-3,4-dihydro-2H-benzo[e][1,2,4]thiadiazine-7-carboxamide 1,1-dioxide]",> 50
11,"O=C(Nc1cc(F)c(F)c(F)c1)c1ccc2c(c1)S(=O)(=O)NC(c1cccs1)N2 (stereo not shown) [Example E43, 3-(thiophen-2-yl)-N-(3,4,5-trifluorophenyl)-3,4-dihydro-2H-benzo[e][1,2,4]thiadiazine-7-carboxamide 1,1-dioxide]",> 50
12,"O=C(Nc1cc(F)c(F)c(F)c1)c1ccc2c(c1)S(=O)(=O)NC(c1ccccn1)N2 (stereo not shown) [Example E44, 3-(pyridin-2-yl)-N-(3,4,5-trifluorophenyl)-3,4-dihydro-2H-benzo[e][1,2,4]thiadiazine-7-carboxamide 1,1-dioxide]",> 50
13,"O=C(Nc1cc(F)c(F)c(F)c1)c1ccc2c(c1)S(=O)(=O)NC(c1cnns1)N2 (stereo not shown) [Example E45, 3-(1,2,3-thiadiazol-5-yl)-N-(3,4,5-trifluorophenyl)-3,4-dihydro-2H-benzo[e][1,2,4]thiadiazine-7-carboxamide 1,1-dioxide]",> 50
14,"O=C(Nc1cc(F)c(F)c(F)c1)c1ccc2c(c1)S(=O)(=O)NC(c1ccn[nH]1)N2 (stereo not shown) [Example E46, 3-(1H-pyrazol-5-yl)-N-(3,4,5-trifluorophenyl)-3,4-dihydro-2H-benzo[e][1,2,4]thiadiazine-7-carboxamide 1,1-dioxide]",> 50
15,"O=C(Nc1ccc(F)c(F)c1)c1ccc2c(c1)S(=O)(=O)NC(c1cccnc1)N2 (stereo not shown) [Example E47, N-(3,4-difluorophenyl)-3-(pyridin-3-yl)-3,4-dihydro-2H-benzo[e][1,2,4]thiadiazine-7-carboxamide 1,1-dioxide]",> 50
16,"O=C(Nc1cc(F)c(F)c(F)c1)c1ccc2c(c1)S(=O)(=O)NC(c1cccnc1)N2 (stereo not shown) [Example E48, 3-(pyridin-3-yl)-N-(3,4,5-trifluorophenyl)-3,4-dihydro-2H-benzo[e][1,2,4]thiadiazine-7-carboxamide 1,1-dioxide]",> 50
17,"O=C(Nc1ccc(F)c(F)c1)c1ccc2c(c1)S(=O)(=O)NC(c1nccs1)N2 (stereo not shown) [Example E50, N-(3,4-difluorophenyl)-3-(thiazol-2-yl)-3,4-dihydro-2H-benzo[e][1,2,4]thiadiazine-7-carboxamide 1,1-dioxide]",> 50
